Experimental findings from ChEMBL document CHEMBL5370549, “Optimization and evaluation of pyridinyl vinyl sulfones as Nrf2 activator for the antioxidant and anti-inflammatory effects” (Eur J Med Chem, 2023) are described below.

Series [1] is described as follows: Metabolic stability of the compound in human liver microsomes assessed as parent compound remaining measured after 30 mins. The settings on record: read-out: Stability. The class given is ADME, Microsome. Background: Microsomes from liver hold many membrane-bound enzymes, among them those of drug oxidation.
The target of the next series is CYP2C9 (Homo sapiens, UniProt P11712). Kind of series: Inhibition of CYP2C9 (unknown origin) assessed as enzyme activity at 10 uM relative to control. The format is ADME. More on the design: scale not given: the % may be the effect or the level left. The settings on record: read-out: Activity.
Series [2] can be described thus: Metabolic stability of the compound in rat plasma assessed as parent compound remaining measured after 30 mins. The format is ADME, cell-free. To be noted: read-out: Stability.
Series [3] can be described thus: Metabolic stability of the compound in mouse liver microsomes assessed as parent compound remaining measured after 30 mins. The format is ADME, Microsome. To be noted: read-out: Stability.
The next series addresses CYP3A4 (Homo sapiens, UniProt P08684). Kind of series: Inhibition of CYP3A4 (unknown origin) assessed as enzyme activity at 10 uM relative to control. The format is ADME. More on the design: scale not given: the % may be the effect or the level left. To be noted: read-out: Activity.
The target in the next series is CYP2D6 (Homo sapiens, UniProt P10635). In words: Inhibition of CYP2D6 (unknown origin) assessed as enzyme activity at 10 uM relative to control. The format is ADME. More on the design: scale not given: the % may be the effect or the level left. The settings on record: read-out: Activity.
Series [4] in a line: Metabolic stability of the compound in human plasma assessed as parent compound remaining measured after 30 mins. The class given is ADME, cell-free. To be noted: read-out: Stability.
A further series concerns the target T1, CYP1A2 (Homo sapiens, UniProt P05177).
T1 sequence (P05177 whole entry): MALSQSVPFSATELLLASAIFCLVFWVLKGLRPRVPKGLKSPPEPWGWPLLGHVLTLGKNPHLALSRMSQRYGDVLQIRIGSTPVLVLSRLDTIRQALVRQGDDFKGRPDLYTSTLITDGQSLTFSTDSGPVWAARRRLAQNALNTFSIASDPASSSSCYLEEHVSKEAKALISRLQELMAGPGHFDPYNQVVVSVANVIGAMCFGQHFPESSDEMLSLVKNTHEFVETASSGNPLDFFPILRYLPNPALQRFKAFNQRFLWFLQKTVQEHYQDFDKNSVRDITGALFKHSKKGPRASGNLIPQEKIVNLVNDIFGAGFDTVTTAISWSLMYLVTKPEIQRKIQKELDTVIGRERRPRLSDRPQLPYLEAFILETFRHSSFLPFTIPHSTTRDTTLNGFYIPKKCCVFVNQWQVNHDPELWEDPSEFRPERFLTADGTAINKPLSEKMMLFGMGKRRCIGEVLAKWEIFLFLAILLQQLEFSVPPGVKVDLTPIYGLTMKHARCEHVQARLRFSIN
Kind of series: Inhibition of CYP1A2 (unknown origin) assessed as enzyme activity at 10 uM relative to control. The format is ADME. Further details: scale not given: the % may be the effect or the level left. The settings on record: read-out: Activity.

Another series concerns the target CYP2C19 (Homo sapiens, UniProt P33261). Kind of series: Inhibition of CYP2C19 (unknown origin) assessed as enzyme activity at 10 uM relative to control. The class given is ADME. More on the design: scale not given: the % may be the effect or the level left. The settings on record: read-out: Activity.
In series [5] the target is T2, Nuclear factor erythroid 2-related factor 2 (Homo sapiens, UniProt Q16236).
T2 sequence (Q16236 whole entry): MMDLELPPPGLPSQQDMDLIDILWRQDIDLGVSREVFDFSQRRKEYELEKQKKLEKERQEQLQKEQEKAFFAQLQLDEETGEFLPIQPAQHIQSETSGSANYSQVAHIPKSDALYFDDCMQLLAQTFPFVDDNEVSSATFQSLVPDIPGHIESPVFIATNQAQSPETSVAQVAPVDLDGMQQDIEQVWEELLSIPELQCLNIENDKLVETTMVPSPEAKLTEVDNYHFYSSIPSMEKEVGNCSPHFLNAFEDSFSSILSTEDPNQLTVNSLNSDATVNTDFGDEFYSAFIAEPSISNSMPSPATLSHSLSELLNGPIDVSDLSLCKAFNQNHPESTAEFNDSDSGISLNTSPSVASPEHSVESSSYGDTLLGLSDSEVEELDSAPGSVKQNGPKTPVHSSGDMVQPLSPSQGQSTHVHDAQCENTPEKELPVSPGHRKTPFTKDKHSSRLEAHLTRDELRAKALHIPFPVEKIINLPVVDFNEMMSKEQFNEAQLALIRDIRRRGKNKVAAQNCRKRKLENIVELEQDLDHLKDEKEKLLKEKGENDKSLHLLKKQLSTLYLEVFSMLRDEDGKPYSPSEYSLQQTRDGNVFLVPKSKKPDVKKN
Kind of series: Activation of Nrf2 in human U2OS cells co-expressing Keap1 assessed as induction of Nrf2 nuclear translocation incubated for 6 hrs by PathHunter chemiluminescence based analysis. The class given is cell-based.

Sequence of CYP2C9 (P11712 whole entry): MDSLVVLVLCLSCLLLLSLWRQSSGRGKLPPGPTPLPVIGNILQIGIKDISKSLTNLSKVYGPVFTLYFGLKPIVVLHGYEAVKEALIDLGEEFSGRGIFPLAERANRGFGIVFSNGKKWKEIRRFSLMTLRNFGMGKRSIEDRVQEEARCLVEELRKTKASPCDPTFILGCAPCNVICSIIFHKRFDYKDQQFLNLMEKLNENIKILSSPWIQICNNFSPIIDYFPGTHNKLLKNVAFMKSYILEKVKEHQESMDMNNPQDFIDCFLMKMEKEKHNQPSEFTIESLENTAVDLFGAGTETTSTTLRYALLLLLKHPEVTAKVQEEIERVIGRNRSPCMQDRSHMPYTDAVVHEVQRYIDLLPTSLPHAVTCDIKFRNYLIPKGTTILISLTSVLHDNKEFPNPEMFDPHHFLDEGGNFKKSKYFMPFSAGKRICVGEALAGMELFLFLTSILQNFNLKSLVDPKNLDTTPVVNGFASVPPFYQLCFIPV
Sequence of CYP2C19 (P33261 whole entry): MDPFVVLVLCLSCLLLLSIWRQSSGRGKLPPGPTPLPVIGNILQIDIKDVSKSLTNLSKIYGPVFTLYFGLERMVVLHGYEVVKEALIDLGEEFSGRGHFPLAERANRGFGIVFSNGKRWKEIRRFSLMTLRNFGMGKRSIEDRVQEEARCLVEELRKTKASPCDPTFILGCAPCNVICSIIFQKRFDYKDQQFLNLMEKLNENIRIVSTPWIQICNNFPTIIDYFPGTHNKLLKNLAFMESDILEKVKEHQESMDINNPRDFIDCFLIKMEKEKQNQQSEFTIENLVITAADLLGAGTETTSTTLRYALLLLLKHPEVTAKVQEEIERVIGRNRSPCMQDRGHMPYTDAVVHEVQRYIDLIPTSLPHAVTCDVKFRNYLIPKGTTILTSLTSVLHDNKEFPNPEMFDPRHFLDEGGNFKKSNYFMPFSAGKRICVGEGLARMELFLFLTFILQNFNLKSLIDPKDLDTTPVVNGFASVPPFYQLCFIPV
Sequence of CYP2D6 (P10635 whole entry): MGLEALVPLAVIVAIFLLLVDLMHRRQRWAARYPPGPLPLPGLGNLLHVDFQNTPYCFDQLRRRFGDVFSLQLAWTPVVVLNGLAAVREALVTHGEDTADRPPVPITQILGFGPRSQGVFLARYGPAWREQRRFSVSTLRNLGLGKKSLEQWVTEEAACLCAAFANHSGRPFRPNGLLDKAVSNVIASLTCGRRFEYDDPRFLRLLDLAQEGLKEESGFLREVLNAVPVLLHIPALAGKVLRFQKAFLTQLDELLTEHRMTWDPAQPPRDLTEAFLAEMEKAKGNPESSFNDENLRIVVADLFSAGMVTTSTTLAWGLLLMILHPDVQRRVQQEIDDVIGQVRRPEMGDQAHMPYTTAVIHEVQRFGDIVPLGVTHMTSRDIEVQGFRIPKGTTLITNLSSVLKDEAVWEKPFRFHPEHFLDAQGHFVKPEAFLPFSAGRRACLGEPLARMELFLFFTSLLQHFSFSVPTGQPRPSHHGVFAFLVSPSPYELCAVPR
Sequence of CYP3A4 (P08684 whole entry): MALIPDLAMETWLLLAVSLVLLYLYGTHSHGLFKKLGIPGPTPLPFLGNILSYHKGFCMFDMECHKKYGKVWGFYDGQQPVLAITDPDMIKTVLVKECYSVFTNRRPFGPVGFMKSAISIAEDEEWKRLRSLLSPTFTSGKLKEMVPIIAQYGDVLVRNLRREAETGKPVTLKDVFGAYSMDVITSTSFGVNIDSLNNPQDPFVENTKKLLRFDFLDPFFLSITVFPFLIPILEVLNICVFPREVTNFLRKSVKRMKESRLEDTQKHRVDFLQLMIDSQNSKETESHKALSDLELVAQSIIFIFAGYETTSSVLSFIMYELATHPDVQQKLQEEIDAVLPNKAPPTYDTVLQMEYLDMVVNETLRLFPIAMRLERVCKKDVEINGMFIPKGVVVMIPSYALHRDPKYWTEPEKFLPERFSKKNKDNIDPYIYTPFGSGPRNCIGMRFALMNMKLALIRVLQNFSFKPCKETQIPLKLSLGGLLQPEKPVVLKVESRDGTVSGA

On to `COc1cccnc1S(=O)(=O)/C=C/c1ccccc1C(F)(F)F`, for which the remaining at 0.5 h in series [1] worked out at 52.9%; in series [2] it was 93.5%; in series [3], 17.8%; in series [4], 96.8%. Besides, the activity at 10 µM amounted to 79.2% on CYP2C9; 76% at CYP3A4; 99.1% on CYP2D6; 71.2% at CYP1A2; 59.1% on CYP2C19. In addition, the half-maximal effective concentration (EC50) in series [5] was found to be 0.146 µM.
Regarding `COc1cccc(S(=O)(=O)/C=C/c2ccccc2C(F)(F)F)n1`, the remaining at 0.5 h in series [1] worked out at 19.3%; in series [2] it was 91.8%; in series [3], 6%; in [4] it was 98.4%. Besides, the activity at 10 µM at CYP2C9 was found to be 71%; at CYP3A4, 30.6%; at CYP2D6, 91.7%; at CYP1A2, 4.9%; on CYP2C19, 13.2%. Also, the half-maximal effective concentration (EC50) in series [5] was 0.316 µM.
On to `COc1ccnc(S(=O)(=O)/C=C/c2ccnc(Cl)c2)c1`, for which the remaining at 0.5 h in series [1] worked out at 88.4%; in series [2] it was 59%; in [3], 64.5%; in [4], 93.1%. Further, the activity at 10 µM is more than 99% at CYP2C9; more than 99% on CYP3A4; more than 99% on CYP2D6; 89.6% at CYP1A2; 24.3% at CYP2C19. In addition, the concentration giving a half-maximal response (EC50) in series [5] was 0.4 µM.
For `COc1ccnc(S(=O)(=O)/C=C/c2ccc(Cl)cn2)c1`, the remaining at 0.5 h in series [1] worked out at 70.3%; in series [2] it was 84.8%; in series [3] it was 67.6%; in series [4], 91.1%. In addition, the activity at 10 µM at CYP2C9 is more than 99%; at CYP3A4, 95.1%; on CYP2D6 it was 96.3%; on CYP1A2, 33.3%; on CYP2C19 it was 10.7%. In addition, the EC50 in [5] came to 1.31 µM.

By EC50 is commonly meant the concentration giving half of the maximal effect.
